Source: US7524964B2, “Tetrahydrothiopyrano pyrazole cannabinoid modulators” (Janssen Pharmaceutica NV, priority 2005, dated 2009)
Where two headings read alike, the source gives them in different places.

Key:
human CB-2 receptor = molecular target: T1, human CB-2 receptor (Homo sapiens, UniProt P34972); experiment: Binding assay, cannabinoid CB2 receptor ([3H]-CP-55,940 displacement); conditions: read-out: CB2 binding percent inhibition; for inhibition at 1 µM: test concentration 1 μM (superscript b)
T1 construct: expressed in transfected cells; host or cells: SK-N-MC cells, pcDNA3 CB-2 (human), semi-purified membranes
T1 sequence (P34972 whole entry): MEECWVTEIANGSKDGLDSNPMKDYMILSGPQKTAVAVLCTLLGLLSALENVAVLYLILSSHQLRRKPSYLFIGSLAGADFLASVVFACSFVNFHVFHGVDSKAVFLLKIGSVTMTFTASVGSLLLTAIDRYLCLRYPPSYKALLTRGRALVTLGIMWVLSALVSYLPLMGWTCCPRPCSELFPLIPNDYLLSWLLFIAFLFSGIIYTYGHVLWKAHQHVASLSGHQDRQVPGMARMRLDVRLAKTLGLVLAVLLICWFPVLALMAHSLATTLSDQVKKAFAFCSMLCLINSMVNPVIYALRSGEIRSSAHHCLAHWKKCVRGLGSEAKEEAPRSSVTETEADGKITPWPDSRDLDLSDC
How it was run: (§1)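 Membranes from SK-N-MC cells stably expressing human CB-1 or CB-2 were incubated 90 min at 30° C with 0.2 nM [3H]-CP-55,940 in pH 7.5 Tris buffer with fatty-acid-free BSA; 10 uM WIN 55,212 defined non-specific binding. Filter-bound counts gave IC50 by linear regression, or percent inhibition at 0.2, 1 or 10 μM.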

human CB1 receptor = human CB1 receptor (Homo sapiens, UniProt P21554); experiment: Binding assay, cannabinoid CB1 receptor ([3H]-CP-55,940 displacement); set-up: expressed in transfected cells; host or cells: SK-N-MC cells, pcDNA3 CB-1 (human), semi-purified membranes; conditions: for inhibition at 1 µM: test concentration 1 μM (superscript b); for inhibition at 1 µM / inhibition at 0.2 µM: read-out: CB1 binding percent inhibition; for inhibition at 0.2 µM: test concentration 0.2 μM (superscript a)
human CB1 receptor, sequence (P21554 whole entry): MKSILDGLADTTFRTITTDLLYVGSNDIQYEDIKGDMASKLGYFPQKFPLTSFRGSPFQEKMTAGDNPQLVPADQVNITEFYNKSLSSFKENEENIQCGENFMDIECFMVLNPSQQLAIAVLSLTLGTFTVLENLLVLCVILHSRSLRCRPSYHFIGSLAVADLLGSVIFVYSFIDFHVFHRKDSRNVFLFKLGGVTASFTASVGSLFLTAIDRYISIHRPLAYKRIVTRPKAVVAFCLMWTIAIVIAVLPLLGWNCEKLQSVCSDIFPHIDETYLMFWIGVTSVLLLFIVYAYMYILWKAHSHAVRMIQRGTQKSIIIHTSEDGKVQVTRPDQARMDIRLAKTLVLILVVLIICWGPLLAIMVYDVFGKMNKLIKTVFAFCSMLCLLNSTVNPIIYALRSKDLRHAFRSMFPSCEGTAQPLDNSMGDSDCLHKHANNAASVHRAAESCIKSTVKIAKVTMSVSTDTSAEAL
How it was run: as §1

[1] = test concentration 0.2 μM (superscript a)

| Compound | inhibition at 0.2 µM (human CB-2 receptor; [1]) [%] | inhibition at 0.2 µM (human CB1 receptor) [%] | IC50 (human CB1 receptor) [nM] | further results |
| --- | --- | --- | --- | --- |
| C[C@H](NS(=O)(=O)/C=C/c1nn(Cc2ccccc2)c2c1CS(=O)(=O)CC2)C1CCCCC1 [Cpd 15, (E)-2-(1-benzyl-5,5-dioxo-4,5,6,7-tetrahydro-1H-5λ^6-thiopyrano[4,3-c]pyrazol-3-yl)-ethenesulfonic acid [(1S)-1-cyclohexyl-ethyl]-amide] |  |  |  | inhibition at 1 µM (human CB-2 receptor): 0%; inhibition at 1 µM (human CB1 receptor): 4% |
| O=C(c1nn(-c2ccc(Cl)cc2Cl)c2c1CS(=O)(=O)C/C2=C\c1ccc(F)cc1)N1CCCCC1 [Cpd 101, (7Z)-[1-(2,4-dichloro-phenyl)-7-(4-fluoro-benzylidene)-5,5-dioxo-4,5,6,7-tetrahydro-1H-5λ^6-thiopyrano[4,3-c]pyrazol-3-yl]-piperidin-1-yl-methanone] | 24 | 61 |  |  |
| O=C(N[C@@H]1CCCC[C@H]1O)c1nn(-c2ccc(Cl)cc2Cl)c2c1CSC/C2=C\c1ccc(F)cc1 [Cpd 61, (7Z)-1-(2,4-dichloro-phenyl)-7-(4-fluoro-benzylidene)-1,4,6,7-tetrahydro-thiopyrano[4,3-c]pyrazole-3-carboxylic acid [(1R,2R)-2-hydroxy-cyclohexyl]-amide] | 31 | 60 |  |  |
| CN(NC(=O)c1nn(-c2ccc(Cl)cc2)c2c1CS(=O)(=O)C/C2=C\c1ccc(F)cc1)c1ccccc1 [Cpd 100, (7Z)-1-(4-chloro-phenyl)-7-(4-fluoro-benzylidene)-5,5-dioxo-4,5,6,7-tetrahydro-1H-5λ^6-thiopyrano[4,3-c]pyrazole-3-carboxylic acid N′-methyl-N′-phenyl-hydrazide] |  |  | 25 | inhibition at 0.2 µM (human CB-2 receptor): 9% |
| C[C@@H](NC(=O)c1nn(-c2ccc(Cl)cc2Cl)c2c1CS(=O)(=O)C/C2=C\c1ccc(Cl)o1)C1CCCCC1 [Cpd 118, (7Z)-7-(5-chloro-furan-2-ylmethylene)-1-(2,4-dichloro-phenyl)-5,5-dioxo-4,5,6,7-tetrahydro-1H-5λ^6-thiopyrano[4,3-c]pyrazole-3-carboxylic acid [(1R)-1-cyclohexyl-ethyl]-amide] | 11 |  | 8 |  |
| C[C@H](NC(=O)c1nn(-c2ccc(Cl)cc2Cl)c2c1C[S+]([O-])C/C2=C\c1ccc(F)cc1)c1ccccc1 (stereo partly drawn) [Cpd 74, (7Z)-1-(2,4-dichloro-phenyl)-7-(4-fluoro-benzylidene)-5-oxo-4,5,6,7-tetrahydro-1H-5λ^4-thiopyrano[4,3-c]pyrazole-3-carboxylic acid [(1S)-1-phenyl-ethyl]-amide] | 8 | 45 |  |  |
| C[C@@H](NC(=O)c1c2c(nn1-c1ccc(Cl)cc1Cl)/C(=C/c1ccc(F)cc1)CSC2)c1ccccc1 [Cpd 78, (7Z)-2-(2,4-dichloro-phenyl)-7-(4-fluoro-benzylidene)-2,4,6,7-tetrahydro-thiopyrano[4,3-c]pyrazole-3-carboxylic acid [(1R)-1-phenyl-ethyl]-amide] | 11 | 62 |  |  |
| C[C@H](NC(=O)c1c2c(nn1-c1ccc(Cl)cc1Cl)/C(=C/c1ccc(F)cc1)CSC2)C1CCCCC1 [Cpd 90, (7Z)-2-(2,4-dichloro-phenyl)-7-(4-fluoro-benzylidene)-2,4,6,7-tetrahydro-thiopyrano[4,3-c]pyrazole-3-carboxylic acid [(1S)-1-cyclohexyl-ethyl]amide] | 18 | 31 |  |  |
| O=C(N[C@@H]1CCC[C@H]1O)c1nn(-c2ccc(Cl)cc2Cl)c2c1C[S+]([O-])C/C2=C\c1ccc(F)cc1 (stereo partly drawn) [Cpd 76, (7Z)-1-(2,4-dichloro-phenyl)-7-(4-fluoro-benzylidene)-5-oxo-4,5,6,7-tetrahydro-1H-5λ^4-thiopyrano[4,3-c]pyrazole-3-carboxylic acid [(1R,2R)-2-hydroxy-cyclopentyl]-amide] | 0 | 20 |  |  |
| C[C@@H](NC(=O)c1nn(-c2ccc(Cl)cc2Cl)c2c1CS(=O)(=O)C/C2=C\c1ccc(F)cc1)c1ccccc1 [Cpd 66, (7Z)-1-(2,4-dichloro-phenyl)-7-(4-fluoro-benzylidene)-5,5-dioxo-4,5,6,7-tetrahydro-1H-5λ^6-thiopyrano[4,3-c]pyrazole-3-carboxylic acid [(1R)-1-phenyl-ethyl]-amide] | 24 |  | 4 |  |
| O=C(c1nn(-c2ccc(Cl)cc2)c2c1CS(=O)(=O)C/C2=C\c1ccc(F)cc1)N1CCCCC1 [Cpd 98, (7Z)-[1-(4-chloro-phenyl)-7-(4-fluoro-benzylidene)-5,5-dioxo-4,5,6,7-tetrahydro-1H-5λ^6-thiopyrano[4,3-c]pyrazol-3-yl]-piperidin-1-yl-methanone] | 14 | 51 |  |  |
| C[C@@H](NC(=O)c1nn(-c2ccc(Cl)cc2Cl)c2c1CS(=O)(=O)CC2)c1ccccc1 [Cpd 128, 1-(2,4-dichloro-phenyl)-5,5-dioxo-4,5,6,7-tetrahydro-1H-5λ^6-thiopyrano[4,3-c]pyrazole-3-carboxylic acid [(1R)-1-phenyl-ethyl]-amide] | 10 | 5 |  |  |
| C[C@H](NS(=O)(=O)/C=C/c1nn(Cc2ccccc2)c2c1CS(=O)(=O)CC2)c1ccccc1 [Cpd 18, (E)-2-(1-benzyl-5,5-dioxo-4,5,6,7-tetrahydro-1H-5λ^6-thiopyrano[4,3-c]pyrazol-3-yl)-ethenesulfonic acid [(1S)-1-phenyl-ethyl]-amide] |  |  |  | inhibition at 1 µM (human CB-2 receptor): 40%; inhibition at 1 µM (human CB1 receptor): 0% |
| CC1CCCC(C)N1NC(=O)c1nn(-c2ccc(Cl)cc2Cl)c2c1CSC/C2=C\c1ccc(F)cc1 (stereo not shown) [Cpd 111, (7Z)-1-(2,4-dichloro-phenyl)-7-(4-fluoro-benzylidene)-1,4,6,7-tetrahydro-thiopyrano[4,3-c]pyrazole-3-carboxylic acid (2,6-dimethyl-piperidin-1-yl)-amide] | 16 |  | 14 |  |
| COC[C@@H]1CCCN1NC(=O)c1nn(-c2ccc(Cl)cc2Cl)c2c1CSC/C2=C\c1ccc(F)cc1 [Cpd 123, (7Z)-1-(2,4-dichloro-phenyl)-7-(4-fluoro-benzylidene)-1,4,6,7-tetrahydro-thiopyrano[4,3-c]pyrazole-3-carboxylic acid [(2S)-2-(methoxymethyl)-pyrrolidin-1-yl]-amide] | 12 | 61 |  |  |
| O=S1(=O)Cc2c(/C=C/S(=O)(=O)NN3CCOCC3)nn(-c3ccc(F)cc3F)c2C(Cc2cccc(F)c2)C1 (stereo not shown) [Cpd 44, (E)-2-[1-(2,4-difluoro-phenyl)-7-(3-fluoro-benzyl)-5,5-dioxo-4,5,6,7-tetrahydro-1H-5λ^6-thiopyrano[4,3-c]pyrazol-3-yl]-ethenesulfonic acid morpholin-4-ylamide] | 9 | 3 |  |  |
| C[C@H](NS(=O)(=O)/C=C/c1n[nH]c2c1CSCC2Cc1cccc(F)c1)c1ccccc1 (stereo partly drawn) [Cpd 47, (E)-2-[7-(3-fluoro-benzyl)-1,4,6,7-tetrahydro-thiopyrano[4,3-c]pyrazol-3-yl]-ethenesulfonic acid [(1S)-1-phenyl-ethyl]-amide] | 26 | 24 |  |  |
| C[C@@H](NC(=O)c1c2c(nn1-c1ccc(Cl)cc1Cl)/C(=C/c1ccc(F)cc1)CS(=O)(=O)C2)c1ccccc1 [Cpd 82, (7Z)-2-(2,4-dichloro-phenyl)-7-(4-fluoro-benzylidene)-5,5-dioxo-4,5,6,7-tetrahydro-2H-5λ^6-thiopyrano[4,3-c]pyrazole-3-carboxylic acid [(1R)-1-phenyl-ethyl]-amide] | 19 |  | 48 |  |
| C[C@@H](NC(=O)c1nn(-c2ccc(Cl)cc2)c2c1CSC/C2=C\c1ccc(F)cc1)c1ccccc1 [Cpd 94, (7Z)-1-(4-chloro-phenyl)-7-(4-fluoro-benzylidene)-1,4,6,7-tetrahydro-thiopyrano[4,3-c]pyrazole-3-carboxylic acid [(1R)-1-phenyl-ethyl]-amide] |  |  | 11 | inhibition at 0.2 µM (human CB-2 receptor): 22% |
| O=C(NN1CC2CCCC2C1)c1nn(-c2ccc(Cl)cc2Cl)c2c1CSC/C2=C\c1ccc(F)cc1 (stereo not shown) [Cpd 116, (7Z)-1-(2,4-dichloro-phenyl)-7-(4-fluoro-benzylidene)-1,4,6,7-tetrahydro-thiopyrano[4,3-c]pyrazole-3-carboxylic acid (hexahydro-cyclopenta[c]pyrrol-2-yl)-amide] | 18 |  | 11 |  |
| C[C@@H](NS(=O)(=O)/C=C/c1nn(Cc2ccccc2)c2c1CS(=O)(=O)CC2)c1ccccc1 [Cpd 9, (E)-2-(1-benzyl-5,5-dioxo-4,5,6,7-tetrahydro-1H-5λ^6-thiopyrano[4-3-c]pyrazol-3-yl)-ethenesulfonic acid [(1R)-1-phenyl-ethyl]-amide] |  |  |  | inhibition at 1 µM (human CB-2 receptor): 6%; inhibition at 1 µM (human CB1 receptor): 6% |
| O=C(NN1CC2CCCC2C1)c1c2c(nn1-c1ccc(Cl)cc1Cl)/C(=C/c1ccc(F)cc1)CSC2 (stereo not shown) [Cpd 92, (7Z)-2-(2,4-dichloro-phenyl)-7-(4-fluoro-benzylidene)-2,4,6,7-tetrahydro-thiopyrano[4,3-c]pyrazole-3-carboxylic acid (hexahydro-cyclopenta[c]pyrrol-2-yl)-amide] | 8 | 47 |  |  |
| O=C(N[C@@H]1CCC[C@H]1O)c1nn(-c2ccc(Cl)cc2Cl)c2c1CSC/C2=C\c1ccc(F)cc1 [Cpd 60, (7Z)-1-(2,4-dichloro-phenyl)-7-(4-fluoro-benzylidene)-1,4,6,7-tetrahydro-thiopyrano[4,3-c]pyrazole-3-carboxylic acid [(1R,2R)-2-hydroxy-cyclopentyl]-amide] | 17 | 60 |  |  |
